Measured values from PubChem BioAssay (NCI).
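Interpolation was linear, between the two tested concentrations surrounding the appropriate level; five concentrations were tested over 48 hours in 96-well plates. GI50 is the concentration that inhibits growth by half. TGI is the concentration that stops growth completely.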

Experiments:
Experiment in all cases: NCI anticancer screen, dose series, 48 h
BT-549 breast = test system: BT-549 breast
MOLT-4 leukemia = test system: MOLT-4 leukemia
MALME-3M melanoma = test system: MALME-3M melanoma
SNB-19 CNS = test system: SNB-19 CNS
NCI-H226 lung = test system: NCI-H226 lung
SNB-75 CNS = test system: SNB-75 CNS
ACHN renal = test system: ACHN renal
OVCAR-3 ovarian = test system: OVCAR-3 ovarian
OVCAR-5 ovarian = test system: OVCAR-5 ovarian
CCRF-CEM leukemia = test system: CCRF-CEM leukemia
IGROV1 ovarian = test system: IGROV1 ovarian
HL-60(TB) leukemia = test system: HL-60(TB) leukemia
UACC-257 melanoma = test system: UACC-257 melanoma
NCI-H460 lung = test system: NCI-H460 lung
MDA-MB-231 breast = test system: MDA-MB-231 breast
SF-295 CNS = test system: SF-295 CNS
SK-OV-3 ovarian = test system: SK-OV-3 ovarian
SK-MEL-5 melanoma = test system: SK-MEL-5 melanoma
SN12C renal = test system: SN12C renal
SK-MEL-28 melanoma = test system: SK-MEL-28 melanoma
CAKI-1 renal = test system: CAKI-1 renal
MCF7 breast = test system: MCF7 breast
NCI/ADR-RES ovarian = test system: NCI/ADR-RES ovarian
HS 578T breast = test system: HS 578T breast
A549 NSCLC = test system: A549 NSCLC
PC-3 prostate = test system: PC-3 prostate
A498 renal = test system: A498 renal
HCT-116 colon = test system: HCT-116 colon
SF-268 CNS = test system: SF-268 CNS
UACC-62 melanoma = test system: UACC-62 melanoma
HOP-92 NSCLC = test system: HOP-92 NSCLC
K-562 leukemia = test system: K-562 leukemia
RPMI-8226 leukemia = test system: RPMI-8226 leukemia
MDA-MB-435 = test system: MDA-MB-435
SK-MEL-2 melanoma = test system: SK-MEL-2 melanoma
KM12 colon = test system: KM12 colon
HCC-2998 colon = test system: HCC-2998 colon
COLO 205 colon = test system: COLO 205 colon
M14 melanoma = test system: M14 melanoma
TK-10 renal = test system: TK-10 renal
T-47D breast = test system: T-47D breast
HOP-62 NSCLC = test system: HOP-62 NSCLC
NCI-H23 lung = test system: NCI-H23 lung
EKVX NSCLC = test system: EKVX NSCLC
HT29 colon = test system: HT29 colon
UO-31 renal = test system: UO-31 renal
SF-539 CNS = test system: SF-539 CNS
LOX IMVI melanoma = test system: LOX IMVI melanoma
SW-620 colon = test system: SW-620 colon
NCI-H522 lung = test system: NCI-H522 lung
OVCAR-8 ovarian = test system: OVCAR-8 ovarian
U251 CNS = test system: U251 CNS
786-0 renal = test system: 786-0 renal
OVCAR-4 ovarian = test system: OVCAR-4 ovarian
DU-145 prostate = test system: DU-145 prostate
HCT-15 colon = test system: HCT-15 colon

`Cc1cn(-c2ccc(S(C)(=O)=O)cc2)c(-c2ccc(Cl)cc2)n1` was tested. Which GI50 (BT-549 breast) did it give?
Its GI50 is > 100 µM.

And the TGI (BT-549 breast)?
The TGI was > 100 µM.

And the GI50 (MOLT-4 leukemia)?
The GI50 was > 100 µM.

What about the TGI (MOLT-4 leukemia) of the same compound?
The TGI was > 100 µM.

What about the GI50 (MALME-3M melanoma) of the same compound?
Its GI50 is > 100 µM.

And the TGI (MALME-3M melanoma)?
Its TGI is > 100 µM.

And the GI50 (SNB-19 CNS)?
The GI50 was > 100 µM.

What about the TGI (SNB-19 CNS) of the same compound?
Its TGI is > 100 µM.

What about the GI50 (NCI-H226 lung) of the same compound?
The GI50 was > 100 µM.

What about the TGI (NCI-H226 lung) of the same compound?
Its TGI is > 100 µM.

And the GI50 (SNB-75 CNS)?
The GI50 was > 100 µM.

And the TGI (SNB-75 CNS)?
Its TGI is > 100 µM.

What about the GI50 (ACHN renal) of the same compound?
The GI50 was > 100 µM.

And the TGI (ACHN renal)?
Its TGI is > 100 µM.

And the GI50 (OVCAR-3 ovarian)?
The GI50 was > 100 µM.

And the TGI (OVCAR-3 ovarian)?
The TGI was > 100 µM.

What about the GI50 (OVCAR-5 ovarian) of the same compound?
Its GI50 is > 100 µM.

What about the TGI (OVCAR-5 ovarian) of the same compound?
Its TGI is > 100 µM.

What about the GI50 (CCRF-CEM leukemia) of the same compound?
Its GI50 is > 100 µM.

What about the TGI (CCRF-CEM leukemia) of the same compound?
Its TGI is > 100 µM.

And the GI50 (IGROV1 ovarian)?
Its GI50 is > 100 µM.

What about the TGI (IGROV1 ovarian) of the same compound?
The TGI was > 100 µM.

What about the GI50 (HL-60(TB) leukemia) of the same compound?
Its GI50 is > 100 µM.

What about the TGI (HL-60(TB) leukemia) of the same compound?
Its TGI is > 100 µM.

What about the GI50 (UACC-257 melanoma) of the same compound?
The GI50 was > 100 µM.

What about the TGI (UACC-257 melanoma) of the same compound?
The TGI was > 100 µM.

And the GI50 (NCI-H460 lung)?
Its GI50 is > 100 µM.

And the TGI (NCI-H460 lung)?
The TGI was > 100 µM.

What about the GI50 (MDA-MB-231 breast) of the same compound?
The GI50 was > 100 µM.

And the TGI (MDA-MB-231 breast)?
Its TGI is > 100 µM.

What about the GI50 (SF-295 CNS) of the same compound?
Its GI50 is > 100 µM.

What about the TGI (SF-295 CNS) of the same compound?
The TGI was > 100 µM.

What about the GI50 (SK-OV-3 ovarian) of the same compound?
The GI50 was > 100 µM.

What about the TGI (SK-OV-3 ovarian) of the same compound?
The TGI was > 100 µM.

What about the GI50 (SK-MEL-5 melanoma) of the same compound?
Its GI50 is > 100 µM.

What about the TGI (SK-MEL-5 melanoma) of the same compound?
The TGI was > 100 µM.

What about the GI50 (SN12C renal) of the same compound?
The GI50 was > 100 µM.

And the TGI (SN12C renal)?
Its TGI is > 100 µM.

What about the GI50 (SK-MEL-28 melanoma) of the same compound?
Its GI50 is > 100 µM.

What about the TGI (SK-MEL-28 melanoma) of the same compound?
Its TGI is > 100 µM.

What about the GI50 (CAKI-1 renal) of the same compound?
The GI50 was > 100 µM.

What about the TGI (CAKI-1 renal) of the same compound?
Its TGI is > 100 µM.

And the GI50 (MCF7 breast)?
Its GI50 is > 100 µM.

And the TGI (MCF7 breast)?
The TGI was > 100 µM.

What about the GI50 (NCI/ADR-RES ovarian) of the same compound?
Its GI50 is > 100 µM.

And the TGI (NCI/ADR-RES ovarian)?
Its TGI is > 100 µM.

What about the GI50 (HS 578T breast) of the same compound?
The GI50 was > 100 µM.

What about the TGI (HS 578T breast) of the same compound?
The TGI was > 100 µM.

And the GI50 (A549 NSCLC)?
The GI50 was > 100 µM.

What about the TGI (A549 NSCLC) of the same compound?
Its TGI is > 100 µM.

What about the GI50 (PC-3 prostate) of the same compound?
Its GI50 is > 100 µM.

And the TGI (PC-3 prostate)?
Its TGI is > 100 µM.

And the GI50 (A498 renal)?
The GI50 was > 100 µM.

And the TGI (A498 renal)?
The TGI was > 100 µM.

What about the GI50 (HCT-116 colon) of the same compound?
The GI50 was > 100 µM.

What about the TGI (HCT-116 colon) of the same compound?
The TGI was > 100 µM.

And the GI50 (SF-268 CNS)?
Its GI50 is > 100 µM.

And the TGI (SF-268 CNS)?
The TGI was > 100 µM.

What about the GI50 (UACC-62 melanoma) of the same compound?
Its GI50 is > 100 µM.

And the TGI (UACC-62 melanoma)?
The TGI was > 100 µM.

What about the GI50 (HOP-92 NSCLC) of the same compound?
Its GI50 is > 100 µM.

What about the TGI (HOP-92 NSCLC) of the same compound?
The TGI was > 100 µM.

What about the GI50 (K-562 leukemia) of the same compound?
Its GI50 is > 100 µM.

And the TGI (K-562 leukemia)?
Its TGI is > 100 µM.

What about the GI50 (RPMI-8226 leukemia) of the same compound?
Its GI50 is > 100 µM.

What about the TGI (RPMI-8226 leukemia) of the same compound?
Its TGI is > 100 µM.

What about the GI50 (MDA-MB-435) of the same compound?
Its GI50 is > 100 µM.

What about the TGI (MDA-MB-435) of the same compound?
The TGI was > 100 µM.

And the GI50 (SK-MEL-2 melanoma)?
The GI50 was > 100 µM.

What about the TGI (SK-MEL-2 melanoma) of the same compound?
The TGI was > 100 µM.

What about the GI50 (KM12 colon) of the same compound?
The GI50 was > 100 µM.

And the TGI (KM12 colon)?
The TGI was > 100 µM.

And the GI50 (HCC-2998 colon)?
The GI50 was > 100 µM.

What about the TGI (HCC-2998 colon) of the same compound?
Its TGI is > 100 µM.

What about the GI50 (COLO 205 colon) of the same compound?
The GI50 was > 100 µM.

What about the TGI (COLO 205 colon) of the same compound?
Its TGI is > 100 µM.

What about the GI50 (M14 melanoma) of the same compound?
Its GI50 is > 100 µM.

And the TGI (M14 melanoma)?
Its TGI is > 100 µM.

What about the GI50 (TK-10 renal) of the same compound?
Its GI50 is > 100 µM.

And the TGI (TK-10 renal)?
Its TGI is > 100 µM.

What about the GI50 (T-47D breast) of the same compound?
The GI50 was > 100 µM.

And the TGI (T-47D breast)?
The TGI was > 100 µM.

What about the GI50 (HOP-62 NSCLC) of the same compound?
The GI50 was > 100 µM.

And the TGI (HOP-62 NSCLC)?
The TGI was > 100 µM.

And the GI50 (NCI-H23 lung)?
The GI50 was > 100 µM.

And the TGI (NCI-H23 lung)?
Its TGI is > 100 µM.

What about the GI50 (EKVX NSCLC) of the same compound?
Its GI50 is > 100 µM.

And the TGI (EKVX NSCLC)?
The TGI was > 100 µM.

And the GI50 (HT29 colon)?
The GI50 was > 100 µM.

What about the TGI (HT29 colon) of the same compound?
Its TGI is > 100 µM.

What about the GI50 (UO-31 renal) of the same compound?
The GI50 was > 100 µM.

And the TGI (UO-31 renal)?
The TGI was > 100 µM.

What about the GI50 (SF-539 CNS) of the same compound?
The GI50 was > 100 µM.

And the TGI (SF-539 CNS)?
Its TGI is > 100 µM.

What about the GI50 (LOX IMVI melanoma) of the same compound?
Its GI50 is > 100 µM.

What about the TGI (LOX IMVI melanoma) of the same compound?
The TGI was > 100 µM.

And the GI50 (SW-620 colon)?
The GI50 was > 100 µM.

What about the TGI (SW-620 colon) of the same compound?
Its TGI is > 100 µM.

And the GI50 (NCI-H522 lung)?
The GI50 was > 100 µM.

What about the TGI (NCI-H522 lung) of the same compound?
Its TGI is > 100 µM.

And the GI50 (OVCAR-8 ovarian)?
Its GI50 is > 100 µM.

What about the TGI (OVCAR-8 ovarian) of the same compound?
The TGI was > 100 µM.

What about the GI50 (U251 CNS) of the same compound?
The GI50 was > 100 µM.

What about the TGI (U251 CNS) of the same compound?
Its TGI is > 100 µM.

What about the GI50 (786-0 renal) of the same compound?
Its GI50 is > 100 µM.

And the TGI (786-0 renal)?
The TGI was > 100 µM.

What about the GI50 (OVCAR-4 ovarian) of the same compound?
The GI50 was > 100 µM.

And the TGI (OVCAR-4 ovarian)?
Its TGI is > 100 µM.

What about the GI50 (DU-145 prostate) of the same compound?
The GI50 was > 100 µM.

And the TGI (DU-145 prostate)?
The TGI was > 100 µM.

And the GI50 (HCT-15 colon)?
The GI50 was > 100 µM.

And the TGI (HCT-15 colon)?
Its TGI is > 100 µM.
